Source: US6177253A, “Screening methods for the identification of anti-HIV compounds employing a cyclosporine-specific monoclonal antibody that cross-reacts with HIV-1 p24” (priority 1998, dated 2001)

Key:
Type in all cases: binding, BALB/c mice
C4 2.2 = test: ELISA inhibition by singly modified Cs-derivatives, McAb C4 2.2; settings: group V; McAb binds selectively to Thr^2 -Cs-BSA coating
Method: (§1) A second ELISA Procedure used conjugates of D-Lys^8 -Cs-BSA and Thr^2 -Cs-BSA for coating (Queeniaux et al., 1987b). An indirect detection system consisting of rabbit anti-mouse Ig followed by alkaline phosphates-conjugated goat anti-rabbit IgG was performed as previously described (Queenlaux et al., 1987b).
(§2) The binding of the 22 McAbs to these two Cs-BSA conjugates was also found to correlate well with their fine specificity patterns, as characterized with a set of 28-36 Cs derivatives. Typical ELISA curves showing McAb binding either to D-Lys^8 -Cs-BSA (panel A) or to Thr^2 -Ca-BSA (panel B) and inhibited by Cs or Cs derivatives are shown in FIGS. 8A-8B, D-Lys^8 -Cs-BSA was subsequently used for coating in the inhibition experiments, except for those McAbs binding selectively to Thr^2 -Cs-BSA (see Table 4 and FIGS. 7A-7C). An example of the binding of 26 Cs derivatives by McAbs belonging to each of the five specificity groups mentioned above is reported in Table 5. The results are expressed as the difference of IC50 (in log10) between the Cs derivatives and Cs. All Cs-derivatives used in this study were selected for having a conserved peptide ring conformation compared with CsA (as determined in NMR or X-ray diffraction).

B11 1.4 = test: ELISA inhibition by singly modified Cs-derivatives, McAb B11 1.4; settings: group IV; D-Lys^8 -Cs-BSA coating
Method: as §1, §2

G7 1.1 = test: ELISA inhibition by singly modified Cs-derivatives, McAb G7 1.1; settings: group I; McAb binds selectively to Thr^2 -Cs-BSA coating
Method: as §1, §2

H4 1.3 = test: ELISA inhibition by singly modified Cs-derivatives, McAb H4 1.3; settings: group II; D-Lys^8 -Cs-BSA coating
Method: as §1, §2

H6 1.5 = test: ELISA inhibition by singly modified Cs-derivatives, McAb H6 1.5; settings: group III; D-Lys^8 -Cs-BSA coating
Method: as §1, §2

| SMILES | log10 difference in the concentrations of Cs-derivatives and unmodified Cs required to achieve 50% inhibition in ELISA, McAb C4 2.2 (C4 2.2) [log10] | log10 difference in the concentrations of Cs-derivatives and unmodified Cs required to achieve 50% inhibition in ELISA, McAb B11 1.4 (B11 1.4) [log10] | log10 difference in the concentrations of Cs-derivatives and unmodified Cs required to achieve 50% inhibition in ELISA, McAb G7 1.1 (G7 1.1) [log10] | log10 difference in the concentrations of Cs-derivatives and unmodified Cs required to achieve 50% inhibition in ELISA, McAb H4 1.3 (H4 1.3) [log10] | log10 difference in the concentrations of Cs-derivatives and unmodified Cs required to achieve 50% inhibition in ELISA, McAb H6 1.5 (H6 1.5) [log10] |
| --- | --- | --- | --- | --- | --- |
| C/C=C/C[C@@H](C)[C@@H](O)[C@H]1C(=O)N[C@@H](CC)C(=O)N(C)CC(=O)N(C)[C@@H](C)C(=O)N[C@@H](C(C)C)C(=O)N(C)[C@@H](CC(C)C)C(=O)N[C@@H](C)C(=O)N[C@H](C)C(=O)N(C)[C@@H](CC(C)C)C(=O)N(C)[C@@H](CC(C)C)C(=O)N(C)[C@@H](C(C)C)C(=O)N1C [MeLeu^4 MeAla] | 0.1 | 0.3 | < 0.0 | 1.8 | 1.2 |
| C/C=C/C[C@@H](C)[C@@H](O)[C@H]1C(=O)N[C@@H](CC)C(=O)N(C)CC(=O)N(C)[C@@H](CC(C)C)C(=O)N[C@@H](C(C)C)C(=O)N(C)[C@@H](CC(C)C)C(=O)N[C@@H](C)C(=O)N[C@H]([C@H](C)O)C(=O)N(C)[C@@H](CC(C)C)C(=O)N(C)[C@@H](CC(C)C)C(=O)N(C)[C@@H](C(C)C)C(=O)N1C [D-Ala^8 D-Thr] | 1.2 | 0.4 | > 2.0 | 0.0 | < 0.0 |
| C/C=C/C[C@@H](C)[C@@H](O)[C@H]1C(=O)N[C@@H](C)C(=O)N(C)CC(=O)N(C)[C@@H](CC(C)C)C(=O)N[C@@H](C(C)C)C(=O)N(C)[C@@H](CC(C)C)C(=O)N[C@@H](C)C(=O)N[C@H](C)C(=O)N(C)[C@@H](CC(C)C)C(=O)N(C)[C@@H](CC(C)C)C(=O)N(C)[C@@H](C(C)C)C(=O)N1C [Abu^2 Ala] | 0.1 | 0.4 | 0.2 |  | 0.0 |
| C/C=C/C[C@@H](C)[C@@H](OC(C)=O)[C@H]1C(=O)N[C@@H](CC)C(=O)N(C)CC(=O)N(C)[C@@H](CC(C)C)C(=O)N[C@@H](C(C)C)C(=O)N(C)[C@@H](CC(C)C)C(=O)N[C@@H](C)C(=O)N[C@H](C)C(=O)N(C)[C@@H](CC(C)C)C(=O)N(C)[C@@H](CC(C)C)C(=O)N(C)[C@@H](C(C)C)C(=O)N1C [MeBint^1 3'-O-acetyl] | 0.2 | 0.7 | 0.1 | 1.1 | 0.6 |
| C/C=C/C[C@@H](C)[C@@H](O)[C@H]1C(=O)N[C@@H](CC)C(=O)N(C)CC(=O)N(C)[C@@H](Cc2ccccc2)C(=O)N[C@@H](C(C)C)C(=O)N(C)[C@@H](CC(C)C)C(=O)N[C@@H](C)C(=O)N[C@H](C)C(=O)N(C)[C@@H](CC(C)C)C(=O)N(C)[C@@H](CC(C)C)C(=O)N(C)[C@@H](C(C)C)C(=O)N1C [MeLeu^4 MePhe] | 0.0 | 0.2 | < 0.0 | 0.7 | 2.3 |
